This is an account of results in paper PMC5388737, “Exploring the Role of CYP3A4 Mediated Drug Metabolism in the Pharmacological Modulation of Nitric Oxide Production” (Frontiers in Pharmacology, 2017).

Data set [1] relates to NO production in LPS stimulated RAW 264.7 macrophages. Kind of data set: NO production in LPS stimulated RAW 264.7 murine macrophages (Griess assay). In kind it is cell-based, mouse. Particulars: for pIC50 / IC50: Mus musculus, RAW264.7; for pIC50: 24 h, concentrations with viability <80% rejected, read-out: NO production IC50; for IC50: inferred from relative composition of the RXT metabolite mixture, read-out: inferred IC50 for inactivation of NO production. As to the method: The mouse macrophage cells, RAW264.7 (ATCC® TIB-71™) were obtained from ATCC and cultured in Dulbecco's Modified Eagle Medium (DMEM), supplemented with 10% FBS and 2 mM l-glutamine, in a humidified 5% CO2 atmosphere at 37°C. All cell handling steps were carried out using the SelecT automated cell culture system. RAW264.7 cells were seeded into 96-well plates at a density of 20 × 10^3 cells per well and grown to approximately 50% of confluence (24 h). They were cultured for another 24 h with each of the test compounds described above (5 μL of stock serial dilutions in 20% DMSO were dispensed into 190 μL of fresh medium using Perkin Elmer Evolution P3, Waltham, MA,). Afterwards, these cells were stimulated with LPS (5 μL of 6 μg/mL were dispensed using a Thermo Scientific Multidrop Combi dispenser, MTX Lab Systems, Vienna, VA). Untreated (5 μL of 20% DMSO, compound vehicle) and unstimulated (5 μL of purified water, LPS vehicle) cells were used as negative controls (n = 4) while untreated but stimulated cells were used as positive controls (n = 4) in each assay plate.
Test compound activities were calculated automatically using the Genedata Screener software (Genedata AG, Basel, Switzerland), and the percentage inhibition of each commercial compound was determined by Equation (1), integrated in the Genedata Screener software. Percentage of control of production of nitric oxide was: (1) Percentage of control = (Abswell − Absneg/Abspos − Absneg) ∗ 100 where Abswell is the absorbance measured per specific well; and Abspos and Absneg are the average absorbance measured for the positive (LPS/solvent vehicle) and negative controls (-LPS/solvent vehicle, respectively). […] Dexamethasone was used as positive control standard. All compounds were tested in triplicate (n = 3) in two different days.

Data set [2] can be described thus: In vitro metabolic stability in human liver microsomes. In kind it is in vitro ADME. Particulars: HLM 1 mg/mL, 1 μM substrate, NADPH, read-out: Met. stability T1/2. As to the method:
Protein concentration was 1 mg/mL and NADPH was present at 4 mM. Reaction was quenched using an equal volume of AcN and then diluted 1:1 with water prior to analysis by liquid chromatography coupled to high resolution mass spectrometry (LC-HRMS): Chromatography. The incubations were analyzed using an Agilent Series 1290 LC system (Agilent Technologies, Santa Clara, CA, USA). […] Solvent A contained water with 0.1% formic acid and solvent B contained AcN with 0.1% formic acid, and the flow rate was set at 400 μL/min. The gradient elution was performed as follows: 0-0.5 min 0% eluent B; 0.5-7 min 100% eluent B; 7-9 min 100% eluent B; 9-9.2 min 0% eluent B; and 9.2-10.5 min 0% eluent B. High resolution mass spectrometry: AB SCIEX TripleTOF 5600 quadrupole-time-of-flight mass spectrometer (Q-TOF-MS) in positive ESI mode (AB SCIEX, Concord, ON, Canada) was used with a generic method for data acquisition on all compounds and samples. The method consisted of a time of flight mass survey scan (TOF MS), followed by two information-dependent acquisitions (IDA) TOF MS/MS scans. […] An accumulation time of 100 ms was used for each scan. Mass defect triggered IDA was used for the MS/MS scans (collision energy of 35 eV with a spread of ±10 eV). External mass calibration was performed automatically using a calibrant delivery system. Data processing was performed using MultiQuant Software and MetabolitePilot Software (AB SCIEX, Concord, ON, Canada) to process the TOF MS data and generate all quantitative information. An extracted ion current (XIC) window of ±10 mDa was used for all compounds. Peak areas were used to plot the Ln % remaining relative to t = 0.
A general note: Liver microsomes are vesicles of endoplasmic reticulum, rich in cytochrome P450 enzymes.

Data set [3] can be described thus: Turbidimetric kinetic aqueous solubility (NIVA-CYPI-KS). The settings on record: potassium phosphate buffer, 37 °C, pH 7.4, aqueous buffer, kinetic from dmso stock, potassium phosphate buffer pH 7.4, 2 h, turbidimetry 620 nm. In kind it is physicochemical. As to the method:
(§1) Serial dilutions of test compounds in 100% DMSO were carried out on a Biomek FX workstation coupled with a stacker carrousel (Beckman Coulter Inc. Brea, California). […] Compounds for NO production assessment were also prepared from serial dilutions in 100% DMSO (20 μL) which were combined with water (80 μL).
(§2) Briefly, CYP3A4 inhibition studies were conducted using human recombinant c-DNA expressed CYP3A4 enzymes by quantification of non-fluorescent substrate, 7-benzyloxy-4-(trifluoromethyl) coumarin (BFC) transformation to a fluorescent product (7-HFC), which is mediated by CYP3A4. For aqueous solubility assessment, serial dilutions of test compounds (imidazole derivatives and macrolides) dissolved in DMSO/AcN [35:65] [v/v] (2 μL) were combined with a 180 μL potassium phosphate buffer (pH 7.4) using an Evolution P3 liquid handling station. Then the plates were incubated for 2 h at 37°C to allow slow compound precipitation. Thereafter, absorbance was measured at 620 nm by an EnVision multilabel plate reader. Absorbance signals were used to determine compound solubility limits. Pyrene was used as standard control for precipitation in turbidimetric kinetic solubility determination. […] Finally, reaction product (7-HFC) formation was quantify using florescence measurements. All compounds were tested in triplicate in two different days.

Another data set has as its target CYP3A4 (Homo sapiens, UniProt P08684). Nature of the data set: in vitro. Particulars: recombinant enzyme, pH 7.4. The method, then:
Control samples were prepared in the absence of test compounds by the addition of solvent alone.
Briefly, the observed inactivation rate constant at each macrolide concentration was calculated from the initial slopes of the remaining enzyme activity, plotted semi-logarithmically against the pre-incubation time. Non-linear regression analysis of the negative slopes against inhibitor concentration enables Kinact and KI to be calculated. […] All compounds were tested in triplicate in two different days for every methodology studied. […].

Data set [4] addresses human recombinant c-DNA expressed CYP3A4 (Homo sapiens, UniProt P08684). Kind of data set: CYP3A4 reversible inhibition (NIVA-CYPI-KS, BFC substrate). As to the method: as §1, §2
A short description of data set [5]: RXT metabolite profile in HLM incubations (LC-HRMS). In kind it is in vitro ADME, human. Particulars: RXT incubation with HLM; peak area of [M+H]+ ion. The method, then: Test compounds (ERY, RXT, CLT, and AZT) were incubated in HLM at an initial substrate concentration of 1 μM in a 96-well format. Standard high-throughput incubation conditions were used with time points of 0, 15, 30, 45, 60, and 90 min. Protein concentration was 1 mg/mL and NADPH was present at 4 mM. Reaction was quenched using an equal volume of AcN and then diluted 1:1 with water prior to analysis by liquid chromatography coupled to high resolution mass spectrometry (LC-HRMS): Chromatography. The incubations were analyzed using an Agilent Series 1290 LC system (Agilent Technologies, Santa Clara, CA, USA). All analyses were performed using a Supelco Discovery HS C18 (2.1 × 50 mm) 3 μm column that was held at 30°C. Solvent A contained water with 0.1% formic acid and solvent B contained AcN with 0.1% formic acid, and the flow rate was set at 400 μL/min. The gradient elution was performed as follows: 0–0.5 min 0% eluent B; 0.5–7 min 100% eluent B; 7–9 min 100% eluent B; 9–9.2 min 0% eluent B; and 9.2–10.5 min 0% eluent B. High resolution mass spectrometry: AB SCIEX TripleTOF 5600 quadrupole-time-of-flight mass spectrometer (Q-TOF-MS) in positive ESI mode (AB SCIEX, Concord, ON, Canada) was used with a generic method for data acquisition on all compounds and samples. The method consisted of a time of flight mass survey scan (TOF MS), followed by two information-dependent acquisitions (IDA) TOF MS/MS scans. The mass range was m/z 100–1,000 for both MS and MS/MS. An accumulation time of 100 ms was used for each scan. Mass defect triggered IDA was used for the MS/MS scans (collision energy of 35 eV with a spread of ±10 eV). External mass calibration was performed automatically using a calibrant delivery system. Data processing was performed using MultiQuant Software and MetabolitePilot Software (AB SCIEX, Concord, ON, Canada) to process the TOF MS data and generate all quantitative information. An extracted ion current (XIC) window of ±10 mDa was used for all compounds. […]

For data set [6], the system named is primary cultures of alveolar rat macrophages. More on the design: method as in Tamaoki et al., 1999; Kohri et al., 2000. The settings on record: ref Tamaoki et al., 1999, Kohri et al., 2000; cited from earlier work.
Setting [7] is: read-out: Solubility Range Lower bound.
The mark [8] stands for this setting: read-out: Solubility Range Upper bound.

pIC50: −log10 of the molar value. Converted amounts (≈) assume the structure as drawn. Read-outs that look alike come from different tables or passages of the source.

CYP3A4, sequence (P08684 whole entry): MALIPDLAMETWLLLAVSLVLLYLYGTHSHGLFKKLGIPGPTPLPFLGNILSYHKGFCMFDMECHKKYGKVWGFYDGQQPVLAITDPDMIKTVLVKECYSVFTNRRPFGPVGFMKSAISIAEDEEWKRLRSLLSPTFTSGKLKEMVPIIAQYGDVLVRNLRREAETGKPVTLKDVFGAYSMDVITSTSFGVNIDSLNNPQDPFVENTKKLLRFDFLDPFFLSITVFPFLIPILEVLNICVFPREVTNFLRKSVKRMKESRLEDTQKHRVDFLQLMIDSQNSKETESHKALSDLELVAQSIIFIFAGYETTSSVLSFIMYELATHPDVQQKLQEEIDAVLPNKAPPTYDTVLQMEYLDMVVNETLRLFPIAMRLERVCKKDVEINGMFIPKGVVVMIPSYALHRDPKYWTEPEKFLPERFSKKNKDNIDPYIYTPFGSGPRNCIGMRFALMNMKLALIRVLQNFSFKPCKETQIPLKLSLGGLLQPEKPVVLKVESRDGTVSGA
human recombinant c-DNA expressed CYP3A4, sequence (P08684 whole entry): as above

Consider `CC[C@H]1OC(=O)[C@H](C)[C@@H](O[C@H]2C[C@@](C)(OC)[C@@H](O)[C@H](C)O2)[C@H](C)[C@@H](O[C@@H]2O[C@H](C)C[C@H](N(C)C)[C@H]2O)[C@](C)(O)C[C@@H](C)CN(C)[C@H](C)[C@@H](O)[C@]1(C)O` [Azithromycin], for which, in data set [1] (250 μM (highest noncytotoxic dose), LPS stimulated RAW 264.7), the “NO production, percentage of control” value is 53.82 % of control. In addition, the negative logarithm of the IC50 (pIC50) (in general, −log10 of the IC50, conventionally taken in molar units) in data set [1] (LPS stimulated RAW 264.7) is under 3.60. In data set [2], the half-life at 1 μM was over 60 min. The solubility at 2 h in data set [3] (setting [7]) and in data set [3] (setting [8]) was over 86 µM throughout.
Take `CC[C@H]1OC(=O)[C@H](C)[C@@H](O[C@H]2C[C@@](C)(OC)[C@@H](O)[C@H](C)O2)[C@H](C)[C@@H](O[C@@H]2O[C@H](C)C[C@H](N(C)C)[C@H]2O)[C@](C)(OC)C[C@@H](C)C(=O)[C@H](C)[C@@H](O)[C@]1(C)O` [Claritromycin, clarithromycin]: the “NO production, percentage of control” value in data set [1] (62.5 μM (highest noncytotoxic dose), LPS stimulated RAW 264.7) was found to be 85.2%. Moreover, the pIC50 in data set [1] (LPS stimulated RAW 264.7) is under 4.20. The “CYP3A4 TDI KI” value at CYP3A4 came out at 2.68 µM. In addition, in data set [2], the half-life at 1 μM was 50.6 min. Besides, the solubility at 2 h in data set [3] (setting [7]) and in data set [3] (setting [8]) was over 86 µM throughout.
For `Clc1ccccc1C(c1ccccc1)(c1ccccc1)n1ccnc1` [Clotrimazole, clotrimazole], the figures for the solubility at 2 h in data set [3] (setting [7]) and in data set [3] (setting [8]) were 2.59 µM (≈ 0.893 µg/mL) and 10.3 µM (≈ 3.57 µg/mL), respectively.
Regarding `C[C@@H]1C[C@H]2[C@@H]3CCC4=CC(=O)C=C[C@]4(C)[C@@]3(F)[C@@H](O)C[C@]2(C)[C@@]1(O)C(=O)CO` [Dexamethasone], the negative-log IC50 (pIC50) in data set [1] (LPS stimulated RAW 264.7) is 8.14.
Consider `CC[C@H]1OC(=O)[C@H](C)[C@@H](O[C@H]2C[C@@](C)(OC)[C@@H](O)[C@H](C)O2)[C@H](C)[C@@H](O[C@@H]2O[C@H](C)C[C@H](N(C)C)[C@H]2O)[C@](C)(O)C[C@@H](C)C(=O)[C@H](C)[C@@H](O)[C@]1(C)O` [Erythromycin, erythromycin], for which the pIC50 in data set [1] (LPS stimulated RAW 264.7) was under 3.60; in data set [4], 5.49. Also, the half-life at 1 μM in data set [2] came to 21.7 min. Moreover, the solubility at 2 h in data set [3] (setting [7]) and in data set [3] (setting [8]) was over 86 µM throughout.
As for `CC(=O)N1CCN(c2ccc(OCC3COC(Cn4ccnc4)(c4ccc(Cl)cc4Cl)O3)cc2)CC1` (stereo not drawn) [Ketoconazole, ketoconazole], the negative-log IC50 (pIC50) in data set [1] (LPS stimulated RAW 264.7) is under 5.00.
Take `CCC1OC(=O)C(C)C(OC2CC(C)(OC)C(O)C(C)O2)C(C)C(OC2OC(C)CC(N(C)C)C2O)C(C)(O)CC(C)C(=NO)C(C)C(O)C1(C)O` (stereo not drawn) [M1, ERY oxime]: the “Area (%) relative content of parent and metabolites” value (“Area (%) relative content” below) in data set [5] is reported as 20%. In data set [1], the half-inhibitory concentration (IC50) (as a rule, the midpoint of a concentration-inhibition curve) was found to be 23.1 µg/mL.
`CCC1OC(=O)C(C)C(OC2CC(C)(OC)C(O)C(C)O2)C(C)C(OC2OC(C)CC(NC)C2O)C(C)(O)CC(C)C(=NO)C(C)C(O)C1(C)O` (stereo not drawn) [M5, Demethylated ERY oxime]: the “Area (%) relative content” value in data set [5] was 2%. For the same compound, the IC50 in data set [1] was determined as 4.74 µg/mL.
With `Clc1ccc(COC(Cn2ccnc2)c2ccc(Cl)cc2Cl)c(Cl)c1` (stereo not drawn) [Miconazole, miconazole], the solubility (commonly the dissolved amount per volume that the medium holds) at 2 h amounted to 8.62 µM (≈ 3.59 µg/mL) in data set [3] (setting [7]) and 34.5 µM (≈ 14.3 µg/mL) in data set [3] (setting [8]).
For the compound `CC[C@H]1OC(=O)[C@H](C)[C@@H](O[C@H]2C[C@@](C)(OC)[C@@H](O)[C@H](C)O2)[C@H](C)[C@@H](O[C@@H]2O[C@H](C)C[C@H](N(C)C)[C@H]2O)[C@](C)(O)C[C@@H](C)/C(=N\OCOCCOC)[C@H](C)[C@@H](O)[C@]1(C)O` [Roxythromycin, (E)-ERY-9-[O-[(2-methoxyethoxy)methyl]oxime]], the “Area (%) relative content” value in data set [5] was 65%. The figures for the negative logarithm of the IC50 (pIC50) in data set [1] (LPS stimulated RAW 264.7) and in data set [4] were under 3.60 and 5.19, respectively. Also, the “inactivation of NO production” value in data set [1] (from 0.488 to 250 μM, LPS stimulated RAW 264.7) is given as “no inactivation at all”. Also, the “CYP3A4 TDI KI” value on CYP3A4 came out at 0.29 µM. The kinact (commonly the rate constant of inactivation at saturating inhibitor) at CYP3A4 was 0.000715 s⁻¹. Moreover, in data set [2], the half-life at 1 μM was 38.1 min. Also, in data set [6], the “IC50 in NO production” value is 5 µg/mL (≈ 5.97 µM). Further, the solubility at 2 h in data set [3] (setting [7]) and in data set [3] (setting [8]) was over 86 µM throughout.
